Source: publication PMC11643962, “Exploring 4,7-Disubstituted Pyrimido[4,5-d]pyrimidines as Antiviral and Anticancer Agents” (Molecules, 2024)
Where two headings read alike, the source gives them in different places.

Experiments:
[1] = system: Zika virus (ZikV mr766); test: Antiviral CPE reduction assay, Zika virus mr766 in VeroE6 cells; format: cell-based; conditions: Zika virus, Vero C1008, MTS, mean ± SD, no unit printed on the supplement page (Table 2 of the same screen is in µM)
[2] = system: DND-41 (acute lymphoblastic leukemia); test: MTS proliferation assay, DND-41; conditions: Homo sapiens, DND41, 72 h, read-out: Anti-Proliferative Activity (IC50) DND-41
[3] = system: influenza B (B/Ned/537/05); test: Antiviral CPE reduction assay, influenza B in MDCK cells; format: cell-based, influenza B virus; conditions: Influenza B virus, MDCK, read-out: Antiviral Activity (EC50) Influenza B
[4] = system: Capan-1 (pancreatic adenocarcinoma); test: MTS proliferation assay, Capan-1; conditions: Homo sapiens, CAPAN-1, 72 h, read-out: Anti-Proliferative Activity (IC50) Capan-1
[5] = system: NCI-H460 (lung carcinoma); test: MTS proliferation assay, NCI-H460; conditions: Homo sapiens, NCI-H460, 72 h, read-out: Anti-Proliferative Activity (IC50) NCI-H460
[6] = system: LN-229 (glioblastoma); test: MTS proliferation assay, LN-229; conditions: Homo sapiens, LN-229, 72 h, read-out: Anti-Proliferative Activity (IC50) LN-229
[7] = system: Z-138 (non-Hodgkin lymphoma); test: MTS proliferation assay, Z-138; conditions: Homo sapiens, Z-138, 72 h, read-out: Anti-Proliferative Activity (IC50) Z-138
[8] = system: influenza A/H1N1 (A/Ned/378/05); test: Antiviral CPE reduction assay, influenza A/H1N1 in MDCK cells; format: cell-based, influenza A virus; conditions: Influenza A virus, read-out: Antiviral Activity (EC50) Influenza H1N1
[9] = system: HCoV-NL63; test: Antiviral CPE reduction assay, HCoV-NL63 in Hep3B cells; format: cell-based, human coronavirus NL63; conditions: Human coronavirus NL63, MTS, mean ± SD of two or three independent experiments
[10] = system: yellow fever virus (YFV 17D); test: microbe, parasite or virus in culture; format: cell-based; conditions: Yellow fever virus, Vero C1008, read-out: Antiviral activity (EC50) YFV 17D
[11] = system: HCoV-OC43; test: Antiviral CPE reduction assay, HCoV-OC43 in HEL299 cells; format: cell-based, human coronavirus OC43; conditions: Betacoronavirus 1, OC43, HEL 299, MTS, mean ± SD of two or three independent experiments
[12] = system: HCoV-229E; test: Antiviral CPE reduction assay, HCoV-229E in HEL299 cells; format: cell-based, human coronavirus 229E; conditions: Human coronavirus 229E, HEL 299, MTS, mean ± SD of two or three independent experiments
[13] = in vitro; conditions: dog
[14] = system: respiratory syncytial virus A (RSV A Long); test: Antiviral CPE reduction assay, RSV A Long in Hep2 cells; format: cell-based; conditions: human respiratory syncytial virus
[15] = in vitro; conditions: human
[16] = in vitro; conditions: African green monkey
[17] = system: HCT-116 (colorectal carcinoma); test: MTS proliferation assay, HCT-116; conditions: Homo sapiens, HCT-116, 72 h, read-out: Anti-Proliferative Activity (IC50) HCT-116
[18] = system: HL-60 (acute myeloid leukemia); test: MTS proliferation assay, HL-60; conditions: Homo sapiens, HL-60, 72 h, read-out: Anti-Proliferative Activity (IC50) HL-60
[19] = system: K-562 (chronic myeloid leukemia); test: MTS proliferation assay, K-562; conditions: Homo sapiens, K562, 72 h, read-out: Anti-Proliferative Activity (IC50) K-562
[20] = system: herpes simplex virus-1 (HSV-1 KOS); test: Antiviral CPE reduction assay, HSV-1 KOS in HEL299 cells; format: cell-based; conditions: Human alphaherpesvirus 1, HEL 299, MTS, mean ± SD, no unit printed on the supplement page (Table 2 of the same screen is in µM)
[21] = in vitro; conditions: human; remark: listed apart in the source
[22] = system: influenza A/H3N2 (A/HK/7/87); test: Antiviral CPE reduction assay, influenza A/H3N2 in MDCK cells; format: cell-based, influenza A virus; conditions: Influenza A virus, read-out: Antiviral Activity (EC50) Influenza H3N2
[23] = in vitro; conditions: human; remark: listed apart in the source
[24] = H1N1, MDCK cells, CPE reduction, MTS, mean ± SD of two or three independent experiments
[25] = HEp-2, Hep2 cells, CPE reduction, MTS, mean ± SD of two or three independent experiments, read-out: Antiviral Activity (EC50) RSV A Long
[26] = H3N2, MDCK cells, CPE reduction, MTS, mean ± SD of two or three independent experiments
[27] = HEp-2, read-out: Antiviral Activity (EC50) RSV A Long

| SMILES | EC50 [1] [µM] | IC50 [2] [µM] | EC50 [3] [µM] | IC50 [4] [µM] | IC50 [5] [µM] | IC50 [6] [µM] | IC50 [7] [µM] | EC50 [8, 24] [µM] | EC50 [9] [µM] | EC50 [10] [µM] | EC50 [11] [µM] | EC50 [12] [µM] | CC50 [13] [µM] | EC50 [14, 25] [µM] | CC50 [16] [µM] | IC50 [17] [µM] | IC50 [18] [µM] | IC50 [19] [µM] | EC50 [20] [µM] | EC50 [22, 26] [µM] | other results |
| --- | --- | --- | --- | --- | --- | --- | --- | --- | --- | --- | --- | --- | --- | --- | --- | --- | --- | --- | --- | --- | --- |
| CN(C)CCNc1ncc2c(Nc3cccc4c3CCCC4)ncnc2n1 [Compound 7a, N^2-[2-(Dimethylamino)ethyl]-N^5-(5,6,7,8-tetrahydronaphthalen-1-yl)pyrimido[4,5-d]pyrimidine-2,5-diamine] | > 50 | 57.9 ± 2 | > 50 | > 100 | > 100 | > 100 | 58.9 ± 1.8 | > 50 | > 50 | > 50 | 27.7 ± 0.6 | 15.8 ± 0.9 | > 50 | > 50 | > 50 | > 100 | > 100 | 87 ± 1.3 | > 50 | > 50 | melting point: 176.3 °C; CC50 [15]: > 50 µM; CC50 [21]: > 50 µM; CC50 [23]: > 50 µM |
| CCN(CC)CCNc1ncc2c(Nc3cccc4c3CCCC4)ncnc2n1 [Compound 7b, N^2-[2-(Diethylamino)ethyl]-N^5-(5,6,7,8-tetrahydronaphthalen-1-yl)pyrimido[4,5-d]pyrimidine-2,5-diamine] | > 50 | 67.1 ± 4.7 | > 50 | > 100 | > 100 | > 100 | 62.6 ± 0.8 | > 50 | > 50 | > 50 | 34.7 ± 16.7 | 11 ± 2.7 | > 50 | > 50 | > 50 | > 100 | > 100 | > 100 | > 50 | > 50 | melting point: 181.3 °C; CC50 [15]: > 50 µM; CC50 [21]: > 50 µM; CC50 [23]: > 50 µM |
| CN(C)CCNc1ncc2c(Nc3cccc4c3CCC4)ncnc2n1 [Compound 7e, N^5-(2,3-dihydro-1H-inden-4-yl)-N^2-(2-(dimethylamino)ethyl)pyrimido[4,5-d]pyrimidine-2,5-diamine] | > 50 | > 100 | > 50 | > 100 | > 100 | > 100 | > 100 | > 50 | > 50 | > 50 | > 50 | 20.6 ± 0.3 | > 50 | > 50 | > 50 | > 100 | > 100 | > 100 | > 50 | > 50 | melting point: 180.9 °C; CC50 [15]: > 50 µM; CC50 [21]: > 50 µM; CC50 [23]: > 50 µM |
| C#Cc1cccc(Nc2ncnc3nc(NCCN(CC)CC)ncc23)c1 [Compound 7i, N^2-[2-(diethylamino)ethyl]-N^5-(3-ethynylphenyl)pyrimido[4,5-d]pyrimidine-2,5-diamine] | > 50 | 62.6 ± 0.1 | > 50 | > 100 | > 100 | > 100 | 62.1 ± 0.8 | > 50 | > 50 | > 50 | ≥ 39.8 | 19.3 ± 6.6 | > 50 | > 50 | > 50 | > 100 | > 100 | 51.8 ± 3.5 | > 50 | > 50 |  |
| C#Cc1cccc(Nc2ncnc3cc(OCCOC)c(OCCOC)cc23)c1 [Erlotinib, erlotinib, reference compound] | > 100 | > 100 | > 100 | 18.6 ± 1.1 | > 100 | > 100 | > 100 | > 100 | > 100 | > 100 | > 100 | 22.5 ± 10 | > 100 | > 100 | > 100 | > 100 | 10.7 ± 0.1 | > 100 | > 100 | > 100 | CC50 [15]: > 100 µM; CC50 [21]: > 100 µM; CC50 [23]: > 100 µM |
| COc1cc([C@@H]2c3cc4c(cc3[C@@H](O[C@@H]3O[C@@H]5CO[C@@H](C)O[C@H]5[C@H](O)[C@H]3O)[C@H]3COC(=O)[C@H]23)OCO4)cc(OC)c1O [Etoposide, etoposide, reference compound] |  | 0.1 ± 0.02 |  | 0.1 ± 0.03 | 2.2 ± 0.8 | 3 ± 0.2 | 0.08 ± 0.03 |  |  |  |  |  |  |  |  | 1.4 ± 0.09 | 0.2 ± 0.01 | 6 ± 2 |  |  |  |
| C#Cc1cccc(Nc2ncnc3cc(OCCOC)c(OCCO)cc23)c1 [OSI-420, reference compound] | > 100 | > 100 | > 100 | 41.7 ± 3.6 | > 100 | > 100 | > 100 |  | > 100 | > 100 | > 100 | > 100 | > 100 |  | > 100 | > 100 | > 100 | > 100 | > 100 |  | EC50 ([8]; H1N1, MDCK): > 100 µM; EC50 [14, 27]: > 100 µM; EC50 ([22]; H3N2, MDCK): > 100 µM |
| CCC(CC)COC(=O)[C@H](C)N[P@](=O)(OC[C@H]1O[C@@](C#N)(c2ccc3c(N)ncnn23)[C@H](O)[C@@H]1O)Oc1ccccc1 [Remdesivir, remdesivir, reference compound] |  |  |  |  |  |  |  |  | 0.14 ± 0.04 |  | 0.14 ± 0.007 | 0.05 ± 0.04 |  | 0.008 ± 0.001 |  |  |  |  |  |  | CC50 [23]: > 10 µM |
| NC(=O)c1ncn([C@@H]2O[C@H](CO)[C@@H](O)[C@H]2O)n1 [Ribavirin, ribavirin, reference compound] | 104 |  | 7.4 ± 0.8 |  |  |  |  |  | 39.9 ± 7.1 | 24.5 | 100 ± 19 | 38.9 ± 1.7 | > 250 |  | > 250 |  |  |  |  |  | EC50 ([8]; H1N1, MDCK): 9.6 ± 1 µM; EC50 [14, 27]: 35.9 ± 1.3 µM; EC50 ([22]; H3N2, MDCK): 7.2 ± 1.6 µM |
| CC(N)C12CC3CC(CC(C3)C1)C2 (centres unmarked) [Rimantadine, rimantadine, reference compound] |  |  | > 100 |  |  |  |  | 1.7 ± 0.5 |  |  |  |  | > 100 |  |  |  |  |  |  | 0.6 ± 0.07 |  |
| CC(=O)N[C@H]1[C@H]([C@H](O)[C@H](O)CO)OC(C(=O)O)=C[C@@H]1N=C(N)N [Zanamivir, zanamivir, reference compound] |  |  | 0.4 ± 0.01 |  |  |  |  | 0.6 ± 0.3 |  |  |  |  | > 100 |  |  |  |  |  |  | 3 ± 0.2 |  |
